Laboratory results published in US20070087974A1, “TREATMENT OR PREVENTION OF RESPIRATORY VIRAL INFECTIONS WITH IMMUNOMODULATOR COMPOUNDS” (SCICLONE PHARMACEUTICALS, INC., priority 2004, published 2007).
Like-named read-outs stand apart in the source and are kept apart here. Marks after values point to notes of the source that are not given here.

System: Influenza virus A—A/Achi/1/68 (H3N2)
Type: in vivo, outbred CFW female mice
[1] = 10.0 mg/kg per os for 5 days, […]

Compound: N[C@H](CCC(=O)N[C@@H](Cc1c[nH]c2ccccc12)C(=O)O)C(=O)O [SCV-07, γ-D-glutamyl-L-tryptophan]
- # of mice survived (0.1 mg/kg per os for 5 days, […]): 0
- # of mice survived (1.0 mg/kg per os for 5 days, […]): 0
- Median survival (days) (1.0 mg/kg per os for 5 days, […], p = 0.025 compared to PBS-treated group by Log Rank test): 9.0* days
- # of mice survived [1]: 0
- Median survival [1]: 6.0 days
- Median survival (mouse, in vivo): 7.0 days
